Results reported in patent publication US20140242600A1, “IMAGING THE HETEROGENEOUS UPTAKE OF RADIOLABELED MOLECULES IN SINGLE LIVING CELLS” (priority 2011, published 2014).

Columns and labels:
HeLa cells = assay: Radioluminescence microscopy of FDG uptake in HeLa cells on scintillator plate; assay type: cell-based; settings: HeLa cells fasted 2 h, 400 μCi FDG 20 min 37° C., 20 minute exposure
Experimental: To visualize the uptake of radiotracer at the microscopic level, cells were cultured directly on a scintillating plate made of a material that converts incident beta radiation into optical photons via radioluminescence. In these experiments, scintillation plates were used with dimensions 10 mm×10 mm×0.5 mm that were made of CdWO4, a dense, high-Z, non-hygroscopic material, with both sides polished to allow for concurrent optical imaging (MTI Corp.). In one experiment, HeLa cells were seeded and cultured on the scintillating plate, immersed in cell culture medium (Dulbecco's Modified Eagle Medium containing 10% fetal calf serum) for 12-18 hours. After the cells had adhered to the surface of the scintillator plate and divided adequately, they were fasted for two hours in glucose-free cell medium and incubated for 20 minutes at 37° C. with 400 μCi of ^18F-fluorodeoxyglucose (FDG). […]
Radioluminescence images were taken with an EM gain of 251/1200, the excitation shutter closed, and the emission shutter open. […] Then, in luminescence mode, the image sharpness was optimized by varying the focal distance while acquiring 5 minute-exposure images. […]

[1] = system: MDA-MB-231 human breast cancer cells; assay: Single-cell FDG uptake at a fixed time-point, radioluminescence and fluorescence microscopy; assay type: cell-based; settings: glucose-deprived 1 hour
Source text: In this illustration, the common radiotracer [^18F]fluorodeoxyglucose (FDG) was used. […] The radioluminescence microscopy set-up consisted of cells adhering to a 100 μm-thin CdWO4 scintillator plate that was immersed in a glass-bottom dish filled with cell culture medium as shown schematically in FIG. 2. The dish was imaged using an inverted microscope fitted with a high-NA objective and an electron-multiplying charge-coupled device (EM-CCD).
Brightfield images were acquired with no EM gain, a neutral-density filter on the excitation, and the emission shutter open. […] The brightfield mode was used to set the microscope into focus. […] For fluorescence microscopy, a 460 nm/535 nm filter set for 2-NBDG imaging (Chroma, D460/50x and D535/40m) and a 540 nm/600 nm filter set for RFP imaging (Chroma, HQ540/40x and HQ600/50m) were used.
One side of the scintillator plate was coated with fibronectin (10 μg/ml) to allow the cells to attach. After the plate had dried, the cells were seeded by placing a 50 μl drop containing 10^4 cells on to the fibronectin-coated plate.
After washing the cells, brightfield, radioluminescence and fluorescence micrographs were acquired.
To measure radiotracer uptake in single cells, circular regions of interest (ROI's; diameter, 24 μm) were manually placed on the cells using the brightfield micrograph. […] The same procedure was also applied to fluorescence micrographs.

[2] = system: breast cancer cells (MDA-MB-231); assay: Single-cell FDG uptake and efflux over time (pharmacokinetic study), serial radioluminescence imaging; assay type: cell-based, human
Experimental: To investigate the utility of radioluminescence microscopy for single-cell pharmacokinetic studies, FDG uptake, FDG efflux and FDG withdrawal conditions were analyzed. FDG uptake in breast cancer cells (MDA-MB-231) over time was monitored by depriving cells of glucose for 1 hour and then adding 5 μCi of FDG to the medium. Serial brightfield and radioluminescence images were acquired every 6 minutes for a period of 8 hours.
To monitor FDG efflux, breast cancer cells (MDA-MB-231) were subjected to conditions known to minimize FDG influx, i.e. thorough competition from glucose and withdrawal of FDG.
The influx of FDG into glucose-deprived cells was described using the following two-tissue compartmental kinetic model:
where Ca is the extracellular FDG concentration (assumed to be fixed); C(t) is the time-dependent intracellular FDG concentration (including free FDG and bound FDG-6-P); and K1, k2 and k3 are the rate constants representing influx, efflux, and irreversible phosphorylation of FDG, respectively. Fort>>1/(k2+k3, the intracellular and extracellular compartments are in equilibrium, and the intracellular concentration of FDG increases linearly with time due to irreversible trapping of FDG. The parameters of this linear rise (i.e. slope and intercept) are the Patlak coefficients. The slope of the linear rise is the product of two terms, namely K1 the influx rate, and k3/(k2+k3) is the fraction of the intracellular FDG irreversibly metabolized. A non-linear weighted least-squares fitting was used to estimate the parameters of the model. The fitting weights were adjusted to decrease the contribution of later time points, which have higher noise due to radioactive decay.
A mathematical model was also derived to represent FDG efflux from a cell. The model assumed that (1) following withdrawal of FDG, the concentration of FDG in the cell culture medium remained negligible due to the large extracellular volume (0.2 ml), and (2) k3>>k4. Under these assumptions, FDG concentration within a single cell can be described by the sum of a slow and a fast exponential decay.
Efflux of FDG from cells was modeled using a two-tissue compartmental model:
where a1 and a2 are positive coefficients that depend on the initial conditions, and λ1 and λ2 are the eigenvalues of the differential system of equations describing transport of FDG between compartments. The rate constant k4 which models the possible dephosphorylation of FDG-6-phosphate (FDG-6-P) was included in this model but assumed to be much smaller than k3. Furthermore, due to the large extracellular volume (0.2 ml), the concentration of FDG in the cell culture medium was assumed to remain negligible after withdrawal of FDG. Under these assumptions, the eigenvalues can be approximated as
These rate parameters were estimated by fitting the efflux model to the measured time-activity curves. For cells for which the solution of the fit yielded λ1≈λ2 or λ2<1 min^−1, the efflux curve was fitted with a single exponential function. In the special case of irreversible trapping (k4=0), the model is described by a single exponential decay with rate: λ1=k2+k3. The model was in agreement with radioluminescence measurements of single cells, confirming that two processes are occurring concurrently at different rates. Unbound FDG contained within the cell quickly diffuses out following concentration gradients, whereas FDG-6-phosphate (FDG-6-P) requires slow dephosphorylation to cross the cell membrane.

[3] = system: HeLa cells transduced with HSV1-ttk; assay: FHBG accumulation in HeLa cells transduced with mrfp1/HSV1-ttk reporter, radioluminescence and fluorescence microscopy; assay type: cell-based, human; settings: 300 μCi 18F-FHBG 2 hours
Source text: To further exploit the microscope's ability to visualize both fluorescent and radioactive probe distributions, human cervical cancer cells (HeLa) were transduced with a dual fusion reporter vector, comprising reporter genes encoding the monomeric red fluorescent protein (mrfp1) and the mutant herpes simplex virus type 1 truncated thymidine kinase (HSV1-ttk). HSV1-ttk can selectively metabolize and trap radiolabeled substrates such as FHBG. Substrates such as 9-(4-[^18F]Fluoro-3hydroxymethylbutyl) guanine (^18F-FHBG) have low affinity for mammalian thymidine kinase (TK) enzymes but high affinity for HSV1-TK. FHBG is selectively metabolized and trapped within transduced cells so it can be used to image cell trafficking in living subjects with PET.
PCR amplification and standard cloning techniques were used to insert the mrfp and ttk genes from plasmid pCONA3.1-CMV-hrl-mrfp-ttk. Lentiviral EF1-gfp vectors were obtained and the gfp fragment was removed from the vector and replaced by mrfp-ttk. For PCR amplifications, different 5′ and 3′ end primers were used to generate the fusion vector (EF1-mrfp-ttk).
HeLa human cervical cancer and 293T human embryonic kidney cells were acquired and cultured in high-glucose Dulbecco's modified eagle medium supplemented with 10% fetal bovine serum. 293T cells were used to produce the lentivirus following standard procedures. HeLa cells were transduced with concentrated lentivirus for 48 hours and then trypsinized and seeded directly onto a scintillator plate coated with fibronectin (10 μg/ml), one day before imaging.
For imaging of cell transduction with FHBG and RFP, transduced HeLa cells were incubated for 2 hours with 300 μCi of ^18F-FHBG.
In transduced cells, accumulation of FHBG was coincident with expression of mrfp1 measured by fluorescence microscopy. A brightfield image (FIG. 5A), a radioluminescence image (FIG. 5B) and a fluorescence image (FIG. 5C) were obtained from the same field. It was seen that 88% of the cells visible on the brightfield image (217/245) were clearly distinguishable both on radioluminescence (FIG. 5B) and fluorescence images (FIG. 5C), while only 9% (21/245) could not be seen on either image. The remaining 7 cells were excluded from the analysis due to ambiguous radioluminescence intensity caused by the proximity to a strongly positive cell.

wild-type HeLa cells = assay: FHBG uptake in wild-type HeLa cells, radioluminescence microscopy; assay type: cell-based, human; settings: FHBG 300 μCi, 2 h
Source text: Generally, radioluminescence signals for FHBG-positive and FHBG-negative cells were more distinctly separated than fluorescence signals for RFP-positive and RFP-negative cells.

[4] = system: mammalian thymidine kinase (TK) enzymes; settings: background statement; cited from earlier work
[5] = system: HSV1-TK (Human herpesvirus 1); settings: background statement; cited from earlier work
Chain of HSV1-TK (Human herpesvirus 1) (P0DTH5 whole entry): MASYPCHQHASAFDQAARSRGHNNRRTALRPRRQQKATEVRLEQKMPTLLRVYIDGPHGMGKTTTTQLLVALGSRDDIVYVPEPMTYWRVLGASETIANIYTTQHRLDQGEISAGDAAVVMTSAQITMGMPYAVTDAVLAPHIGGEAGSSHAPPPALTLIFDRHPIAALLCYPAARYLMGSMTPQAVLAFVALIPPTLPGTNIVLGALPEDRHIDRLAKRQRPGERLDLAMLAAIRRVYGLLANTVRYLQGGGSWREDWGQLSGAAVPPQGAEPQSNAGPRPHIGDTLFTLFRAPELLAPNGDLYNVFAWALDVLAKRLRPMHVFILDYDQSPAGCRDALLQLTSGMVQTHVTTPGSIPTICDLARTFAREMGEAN

OC[C@H]1OC(O)[C@H]([18F])[C@@H](O)[C@@H]1O (stereo partly drawn) [FDG, ^18F-fluorodeoxyglucose]
colocalization between cell outline (brightfield) and radioluminescence intensity (HeLa cells): good colocalization
cell-to-cell variation of radioluminescence intensity (FDG uptake) ([1]; FDG 400 μCi 1 hour 37° C.): varied significantly from cell to cell
correlation (r) of FDG uptake with uptake of 2-NBDG in single cells ([1]; FDG 400 μCi + 2-NBDG 100 μM 1 hour 37° C., P<10^−5): 0.74
cell radioactivity after withdrawal of FDG from the media ([2]; cells previously incubated with FDG 400 μCi, 1 hour): fast decrease in cell radioactivity
cell radioactivity after addition of glucose to the medium ([2]; glucose 25 mM added at 2 hours): decline in cell radioactivity
time at which the majority of cells stopped accumulating FDG ([2]; glucose-deprived 1 hour, 5 μCi FDG in medium): approximately 3 hours
time course of cell radioactivity (FDG uptake) ([2]; glucose-deprived 1 hour, 5 μCi FDG, images every 6 minutes for 8 hours): linear increase in radioactivity, followed by a plateau and a slow decrease after 3 hours
variation of Patlak coefficients across cells ([2]; two-tissue compartmental kinetic model of FDG influx): Large variations

Nc1nc2c(ncn2CCC(CO)C[18F])c(=O)[nH]1 (stereo not drawn) [FHBG, 9-(4-[^18F]-fluoro-3-hydroxy-methylbutyl) guanine]
radiotracer uptake pattern in transduced cells ([3]; 100× magnification): focal radiotracer uptake
cells that could not be seen on either radioluminescence or fluorescence image ([3]; 21/245 cells): 9%
cells visible on brightfield clearly distinguishable both on radioluminescence and fluorescence images ([3]; 217/245 cells): 88%
correlation (r) of RFP fluorescence intensity with FHBG radioluminescence intensity ([3]; transduced HeLa cells): 0.34
radioluminescence signal in wild-type HeLa cells (wild-type HeLa cells): no measurable radioluminescence signal
affinity for mammalian thymidine kinase (TK) enzymes [4]: low affinity
affinity for HSV1-TK [5]: high affinity
